Results as given in article PMC11859928, “Design, Synthesis, and Antiproliferative Activity of Novel Indole/1,2,4-Triazole Hybrids as Tubulin Polymerization Inhibitors” (Pharmaceuticals, 2025).
Read-outs that look alike come from different tables or passages of the source.

How the values were obtained:
NCI-H226 = assay: NCI one-dose assay; format: cell-based; conditions: Homo sapiens, NCI-H226, Non-small cell lung cancer, read-out: Cell growth inhibition %
U251 = assay: NCI one-dose assay; format: cell-based; conditions: Homo sapiens, U-251, U251, CNS cancer, read-out: Cell growth inhibition %
IGROV1 = assay: NCI one-dose assay; format: cell-based; conditions: Homo sapiens, IGROV-1, IGROV1, Ovarian cancer, read-out: Cell growth inhibition %
MDA-MB-435 = assay: NCI one-dose assay; format: cell-based; conditions: Homo sapiens, MDA-MB-435, Melanoma, read-out: Cell growth inhibition %
SF-295 = assay: NCI one-dose assay; format: cell-based; conditions: Homo sapiens, SF-295, CNS cancer, read-out: Cell growth inhibition %
NCI-H522 = assay: NCI one-dose assay; format: cell-based; conditions: Homo sapiens, NCI-H522, Non-small cell lung cancer, read-out: Cell growth inhibition %
SF-268 = assay: NCI one-dose assay; format: cell-based; conditions: Homo sapiens, SF-268, CNS cancer, read-out: Cell growth inhibition %
SK-MEL-28 = assay: NCI one-dose assay; format: cell-based; conditions: Homo sapiens, SK-MEL-28, Melanoma, read-out: Cell growth inhibition %
SNB-19 = assay: NCI one-dose assay; format: cell-based; conditions: Homo sapiens, SNB-19, CNS cancer, read-out: Cell growth inhibition %
T-47D = assay: NCI one-dose assay; format: cell-based; conditions: Homo sapiens, T47D, Breast cancer, read-out: Cell growth inhibition %
MCF7 = assay: NCI one-dose assay; format: cell-based; conditions: Homo sapiens, MCF7, Breast cancer, read-out: Cell growth inhibition %
A549/ATCC = assay: NCI one-dose assay; format: cell-based; conditions: Homo sapiens, Non-small cell lung cancer, read-out: Cell growth inhibition %
SR = assay: NCI one-dose assay; format: cell-based; conditions: Homo sapiens, Leukemia, read-out: Cell growth inhibition %
EKVX = assay: NCI one-dose assay; format: cell-based; conditions: Homo sapiens, Non-small cell lung cancer, read-out: Cell growth inhibition %
HS 578 T = assay: NCI one-dose assay; format: cell-based; conditions: Homo sapiens, Breast cancer, read-out: Cell growth inhibition %
HOP-62 = assay: NCI one-dose assay; format: cell-based; conditions: Homo sapiens, HOP-62, Non-small cell lung cancer, read-out: Cell growth inhibition %
SF-539 = assay: NCI one-dose assay; format: cell-based; conditions: Homo sapiens, SF-539, CNS cancer, read-out: Cell growth inhibition %
OVCAR-3 = assay: NCI one-dose assay; format: cell-based; conditions: Homo sapiens, OVCAR-3, Ovarian cancer, read-out: Cell growth inhibition %
LOX IMVI = assay: NCI one-dose assay; format: cell-based; conditions: Homo sapiens, Melanoma, read-out: Cell growth inhibition %
HOP-92 = assay: NCI one-dose assay; format: cell-based, human; conditions: Homo sapiens, HOP-92, HOP-92, Non-small cell lung cancer, read-out: Cell growth inhibition %
Protocol: (§1) The National Cancer Institute (NCI), Bethesda, USA, selected the final compounds 6a–j and 7a–j for in vitro anticancer screening. An initial in vitro single-dose anticancer experiment was performed with the entire NCI 60 cell lines derived from nine tumor subpanel cancer cell lines. The results for each compound were illustrated as a mean graph showing the percentage growth of treated cells compared to untreated control cells (see Supplementary Materials).
(§2) The NCI anticancer screening process has been thoroughly detailed. The Drug Evaluation Branch of the National Cancer Institute in Bethesda, […], USA, established the procedure and conducted the anticancer assay on 60 human tumor cell lines from nine neoplastic cancers.

UO-31 = assay: NCI one-dose assay; format: cell-based, human; conditions: Homo sapiens, UO-31, UO-31, Renal cancer, read-out: Cell growth inhibition %
Protocol: as §1, §2

786-0 = assay: NCI one-dose assay; format: cell-based, human; conditions: Homo sapiens, 786-0, 786-0, Renal cancer, read-out: Cell growth inhibition %
Protocol: as §1, §2

A498 = assay: NCI one-dose assay; format: cell-based, human; conditions: Homo sapiens, A498, A498, Renal cancer, read-out: Cell growth inhibition %
Protocol: as §1, §2

NCI 60 cell lines = assay: NCI one-dose assay, full panel; format: cell-based, human; conditions: for inhibition at 10 µM: Homo sapiens
Protocol: as §1, §2

RXF 393 = assay: NCI one-dose assay; format: cell-based; conditions: Homo sapiens, RXF 393, Renal cancer, read-out: Cell growth inhibition %

Row | Compound | inhibition at 10 µM (NCI-H226) [%] | inhibition at 10 µM (U251) [%] | inhibition at 10 µM (IGROV1) [%] | inhibition at 10 µM (MDA-MB-435) [%] | inhibition at 10 µM (SF-295) [%] | inhibition at 10 µM (NCI-H522) [%] | inhibition at 10 µM (SF-268) [%] | inhibition at 10 µM (SK-MEL-28) [%] | inhibition at 10 µM (SNB-19) [%] | inhibition at 10 µM (T-47D) [%] | inhibition at 10 µM (MCF7) [%] | inhibition at 10 µM (A549/ATCC) [%] | inhibition at 10 µM (SR) [%] | inhibition at 10 µM (EKVX) [%] | inhibition at 10 µM (HS 578 T) [%] | inhibition at 10 µM (HOP-62) [%] | inhibition at 10 µM (SF-539) [%] | inhibition at 10 µM (OVCAR-3) [%] | inhibition at 10 µM (HOP-92) [%] | inhibition at 10 µM (UO-31) [%] | further results
1 | O=C(CSc1nnc(-c2c[nH]c3ccccc23)n1-c1ccccc1)c1ccccc1 [Compound 6f, 2-((5-(1H-indol-3-yl)-4-phenyl-4H-1,2,4-triazol-3-yl)thio)-1-phenylethanone] | 95.5 | 89.2 | 44.9 | 12.8 | 28 | 28.4 | 68.3 | 0.04 | 80.8 | 16.5 | 63.8 | 14.5 | 18.4 | 31.6 | 75.9 | 76.6 | 92.4 | 39.2 | 53 | 44.5 | inhibition at 10 µM (LOX IMVI): 70.8%; inhibition at 10 µM (786-0): 70.4%; inhibition at 10 µM (A498): -6.16%
2 | COc1ccc(C(=O)CSc2nnc(-c3c[nH]c4ccccc34)n2-c2ccccc2)cc1 [Compound 6g, 2-((5-(1H-Indol-3-yl)-4-phenyl-4H-1,2,4-triazol-3-yl)thio)-1-(4-methoxyphenyl) Ethenone] | 99.9 | 65.6 | 39.5 | 30.9 | 63.8 | 54.3 | 59 | 50.3 | 70.2 | 43.3 | 54.4 | 26 | 20.3 | 70.7 | 84.5 | 91.2 | 71.5 | 46.4 | 92.1 | 67.4 | inhibition at 10 µM (LOX IMVI): 56.5%; inhibition at 10 µM (786-0): 54.8%; inhibition at 10 µM (A498): -11.3%
3 | O=C(CSc1nnc(-c2c[nH]c3ccccc23)n1-c1ccccc1)c1ccc(Br)cc1 [Compound 6i, 2-((5-(1H-Indol-3-yl)-4-phenyl-4H-1,2,4-triazol-3-yl)thio)-1-(4-bromophenyl) Ethenone] | 60.9 | 38.4 | 35.9 | 59.1 | 66.3 | 53.7 | 50.9 | 65.1 | 29.8 | 78 | 46.6 | 70.1 | 9.15 | 89.2 | 47.7 | 26.4 | 38 | 57.5 | 71.9 | 74 | inhibition at 10 µM (LOX IMVI): 58.2%; inhibition at 10 µM (786-0): 17.6%; inhibition at 10 µM (A498): 64%
4 | O=C(CSc1nnc(-c2c[nH]c3ccccc23)n1-c1ccccc1)c1ccc(Cl)cc1 [Compound 6j, 2-((5-(1H-indol-3-yl)-4-phenyl-4H-1,2,4-triazol-3-yl)thio)-1-(4-chlorophenyl) Ethenone] | 82.4 | 69.9 | 48.6 | 20.8 | 45 | 33 | 30.6 | 31.7 | 60 | 45.4 | 61.6 | 62.5 | 7.63 | 74.4 | 66.8 | 53 | 50.5 | 26.1 | 35 | 45.2 | inhibition at 10 µM (LOX IMVI): 84.1%; inhibition at 10 µM (786-0): 55.1%; inhibition at 10 µM (A498): 42.7%
5 | C=CCn1c(SCC(=NO)c2ccc(OC)cc2)nnc1-c1c[nH]c2ccccc12 [Compound 7b, 2-((4-allyl-5-(1H-indol-3-yl)-4H-1,2,4-triazol-3-yl)thio)-1-(4-methoxyphenyl) Ethanone Oxime] | 14.9 | -5.26 | 17.6 | -10.6 | 16.6 | 8.33 | -0.98 | -3.89 | 1.65 | 26.4 | 11.3 | -9.29 | 3.76 | 7.49 | 2.61 | 2 | 4.37 | -9.23 | 8.91 | 19.2 | anticancer activity (in words) (NCI 60 cell lines; across all cell lines, 10 µM): minimal anticancer activity; inhibition at 10 µM (RXF 393): -12.1%; inhibition at 10 µM (786-0): 0.73%
6 | C=CCn1c(SC/C(=N\O)c2ccc(Br)cc2)nnc1-c1c[nH]c2ccccc12 [Compound 7d, (Z)-2-((4-allyl-5-(1H-indol-3-yl)-4H-1,2,4-triazol-3-yl)thio)-1-(4-bromophenyl) Ethanone Oxime] | 33.6 | 5.15 | 30.8 | 11.5 | 32.5 | 18.5 | 4.98 | 7.82 | 8.36 | 39.8 | 17.9 | 9.17 | 28.5 | 25.8 | 22.1 | 0.14 | 14 | -3.34 | 21 | 38.3 | inhibition at 10 µM (NCI 60 cell lines; 60 cell, eleven cell lines, read-out: growth inhibition percentage, range): 34 to 47%; inhibition at 10 µM (RXF 393): 19.3%; inhibition at 10 µM (786-0): 13.4%
7 | C=CCn1c(SC/C(=N\O)c2ccc(Cl)cc2)nnc1-c1c[nH]c2ccccc12 [Compound 7e, (Z)-2-((4-allyl-5-(1H-indol-3-yl)-4H-1,2,4-triazol-3-yl)thio)-1-(4-chlorophenyl) Ethanone Oxime] | 30.4 | 1.78 | 29.7 | 10.7 | 25 | 19.5 | -1.1 | 0.08 | 12.6 | 46.5 | 13.3 | 6.38 | 12.1 | 27.1 | 12.7 | 7.33 | 5.14 | -7.49 | 26.5 | 39.5 | inhibition at 10 µM (NCI 60 cell lines; HL-60(TB), K-562, MOLT-4, HCT-116, UACC-62, UO-31, T-47D, MDA-MB-468, read-out: growth inhibition percentage, range): 35 to 46.5%; inhibition at 10 µM (RXF 393): 5.62%; inhibition at 10 µM (786-0): 11.1%
